Test results published in patent US20230322846A9, “NEUROACTIVE STEROIDS AND THEIR METHODS OF USE” (SAGE THERAPEUTICS, INC., priority 2018, published 2023).
pIC50: −log10 of the molar value.

molecular target: [35S]-TBPS binding, rat brain cortical membranes; assay: Steroid inhibition of [35S]-TBPS binding; settings: 3 nM [35S]-TBPS, in the presence of 5 mM GABA
Procedure: [^35S]-t-Butylbicyclophosphorothionate (TBPS) binding assays using rat brain cortical membranes in the presence of 5 mM GABA has been described (Gee et al, J. Pharmacol. Exp. Ther. 1987, 241, 346-353; Hawkinson et al, Mol. Pharmacol. 1994, 46, 977-985; Lewin, A. H et al., Mol. Pharmacol. 1989, 35, 189-194).
Briefly, cortices are rapidly removed following decapitation of carbon dioxide-anesthetized Sprague-Dawley rats (200-250 g). The cortices are homogenized in 10 volumes of ice-cold 0.32 M sucrose using a glass/teflon homogenizer and centrifuged at 1500×g for 10 min at 4° C. The resultant supernatants are centrifuged at 10,000×g for 20 min at 4° C. to obtain the P2 pellets. The P2 pellets are resuspended in 200 mM NaCl/50 mM Na—K phosphate pH 7.4 buffer and centrifuged at 10,000×g for 10 min at 4° C. This washing procedure is repeated twice and the pellets are resuspended in 10 volumes of buffer. Aliquots ([…]) of the membrane suspensions are incubated with 3 nM [^35S]-TBPS and […] aliquots of test drug dissolved in dimethyl sulfoxide (DMSO) (final 0.5%) in the presence of 5 mM GABA. The incubation is brought to a final volume of 1.0 mL with buffer. Nonspecific binding is determined in the presence of […] and ranged from 15 to 25%. Following a 90 min incubation at room temp, the assays are terminated by filtration through glass fiber filters (Schleicher and Schuell No. 32) using a cell harvester (Brandel) and rinsed three times with ice-cold buffer. Filter bound radioactivity is measured by liquid scintillation spectrometry. Non-linear curve fitting of the overall data for each drug averaged for each concentration is done using Prism (GraphPad). […] The concentration of test compound producing 50% inhibition (IC50) of specific binding and the maximal extent of inhibition (Imax) are determined for the individual experiments with the same model used for the overall data and then the means±SEM.s of the individual experiments are calculated.
Various compounds are or can be screened to determine their potential as modulators of [^35S]-TBPS binding in vitro. These assays are or can be performed in accordance with the above

Compound | pIC50
COC[C@@]1(O)CC[C@H]2[C@H](CC[C@@H]3[C@@H]2CC[C@]2(C)[C@@H]([C@@H](C)Cn4nccc4C#N)CC[C@@H]32)C1 [Example 37, 1-((R)-2-((3R,5R,8R,9R,10S,13S,14S,17R)-3-hydroxy-3-(methoxymethyl)-13-methylhexadecahydro-1H-cyclopenta[a]phenanthren-17-yl)propyl)-1H-pyrazole-5-carbonitrile] | > 7.00
C[C@H]([C@H]1CC[C@H]2[C@@H]3CC[C@@H]4C[C@](C)(O)CC[C@@H]4[C@H]3CC[C@]12C)N(C)c1ccccc1 [Example 38, (3R,5R,8R,9R,10S,13S,14S,17S)-3,13-dimethyl-17-((R)-1-(methyl(phenyl)amino)ethyl)hexadecahydro-1H-cyclopenta[a]phenanthren-3-ol] | 6.00 to 7.00
C[C@@H]([C@H]1CC[C@H]2[C@@H]3CC[C@@H]4C[C@](C)(O)CC[C@@H]4[C@H]3CC[C@]12C)N(C)c1ccccc1 [Example 39, (3R,5R,8R,9R,10S,13S,14S,17S)-3,13-dimethyl-17-((S)-1-(methyl(phenyl)amino)ethyl)hexadecahydro-1H-cyclopenta[a]phenanthren-3-ol] | 5.00 to 6.00
C[C@H]([C@H]1CC[C@H]2[C@@H]3CC[C@@H]4C[C@](C)(O)CC[C@@H]4[C@H]3CC[C@]12C)N1Cc2cc(C#N)ccc2C1=O [Example 40, 2-((R)-1-((3R,5R,8R,9R,10S,13S,14S,17S)-3-hydroxy-3,13-dimethylhexadecahydro-1H-cyclopenta[a]phenanthren-17-yl)ethyl)-1-oxoisoindoline-5-carbonitrile] | > 7.00
CCOC[C@@]1(O)CC[C@H]2[C@H](CC[C@@H]3[C@@H]2CC[C@]2(C)[C@@H]([C@@H](C)NC(=O)c4ccccc4F)CC[C@@H]32)C1 [Example 42, N—((R)-1-((3R,5R,8R,9R,10S,13S,14S,17S)-3-(ethoxymethyl)-3-hydroxy-13-methylhexadecahydro-1H-cyclopenta[a]phenanthren-17-yl)ethyl)-2-fluorobenzamide] | 6.00 to 7.00
CCOC[C@@]1(O)CC[C@H]2[C@H](CC[C@@H]3[C@@H]2CC[C@]2(C)[C@@H]([C@@H](C)N4Cc5cc(C#N)ccc5C4=O)CC[C@@H]32)C1 [Example 43, 2-((R)-1-((3R,5R,8R,9R,10S,13S,14S,17S)-3-(ethoxymethyl)-3-hydroxy-13-methylhexadecahydro-1H-cyclopenta[a]phenanthren-17-yl)ethyl)-1-oxoisoindoline-5-carbonitrile] | 6.00 to 7.00
COC[C@@]1(O)CC[C@H]2[C@H](CC[C@@H]3[C@@H]2CC[C@]2(C)[C@@H]([C@@H](C)N4Cc5cc(C#N)ccc5C4=O)CC[C@@H]32)C1 [Example 44, 2-((R)-1-((3R,5R,8R,9R,10S,13S,14S,17S)-3-hydroxy-3-(methoxymethyl)-13-methylhexadecahydro-1H-cyclopenta[a]phenanthren-17-yl)ethyl)-1-oxoisoindoline-5-carbonitrile] | > 7.00
C[C@H]([C@H]1CC[C@H]2[C@@H]3CC[C@@H]4C[C@](C)(O)CC[C@@H]4[C@H]3CC[C@]12C)N1CCc2cc(C#N)ccc2C1=O [Example 45, 2-((R)-1-((3R,5R,8R,9R,10S,13S,14S,17S)-3-hydroxy-3,13-dimethylhexadecahydro-1H-cyclopenta[a]phenanthren-17-yl)ethyl)-1-oxo-1,2,3,4-tetrahydroisoguinoline-6-carbonitrile] | > 7.00
CCOC[C@@]1(O)CC[C@H]2[C@H](CC[C@@H]3[C@@H]2CC[C@]2(C)[C@@H]([C@@H](C)N4CCc5cc(C#N)ccc5C4=O)CC[C@@H]32)C1 [Example 46, 2-((R)-1-((3R,5R,8R,9R,10S,13S,14S,17S)-3-(ethoxymethyl)-3-hydroxy-13-methylhexadecahydro-1H-cyclopenta[a]phenanthren-17-yl)ethyl)-1-oxo-1,2,3,4-tetrahydroisoquinoline-6-carbonitrile] | > 7.00
